Read-outs that look alike come from different tables or passages of the source.
Tested on: triple-negative human breast cancer cell line MDA-MB-468
Test: XTT cell killing / growth inhibition assay, MDA-MB-468
Format: cell-based
Description: Standard XTT assays with a four-day drug treatment procedure were performed to measure the dose dependent cytotoxicity of IBR analogs in cultured cells. In brief, cells were plated on 96-well dishes one day before the drug treatment, followed by drug treatment on day 2 and XTT assay on day 6 after drug addition by using a commercial cell proliferation kit (Roche Scientific) following the instructions.
Triplicate sets were measured and compiled for final data presentation.
To test the possibility of inhibiting triple-negative breast cancer, the newly synthesized IBR2 analogues IBR101-124 were screened of their growth inhibition abilities using an XTT assay.

[1] = MDA-MB-468, XTT assay, four-day drug treatment, read-out: IC50
[2] = growth inhibition, raw dataset for SAR analysis
[3] = Homo sapiens, 96 h, MDA-MB-468, XTT assay, four-day drug treatment, read-out: IC50
[4] = Homo sapiens, MDA-MB-468, growth inhibition, raw dataset for SAR analysis, read-out: pIC50 (converted)

Compound | IC50 [1] [µM] | pIC50 [2] | IC50 compared with that of the parental compound IBR2 (in words) (MDA-MB-468) | IC50 [3] [µM] | IC50 [4] [µM] | growth inhibition activity (in words) (MDA-MB-468, XTT assay)
O=S(=O)(Cc1cccc(F)c1)N1CCc2ccccc2[C@H]1c1c[nH]c2ccccc12 [IBR106] | 17.2 | 4.76 |  |  |  | 
O=S(=O)(Cc1ccccc1F)N1CCc2ccccc2[C@H]1c1c[nH]c2ccccc12 [IBR104] | 19.2 | 4.72 |  |  |  | 
O=S(=O)(Cc1ccccc1)N1CCc2ccccc2[C@@H]1c1c[nH]c2ccccc12 [IBR101] | 11.7 | 4.93 | slightly lower |  |  | 
O=S(=O)(Cc1cccc(C(F)(F)F)c1)N1CCc2ccccc2[C@@H]1c1c[nH]c2ccccc12 [IBR111] | 11.1 | 4.95 | slightly lower |  |  | 
Nc1ncc([C@@H]2c3ccccc3CCN2S(=O)(=O)Cc2ccccc2)s1 [IBR119, 5-((S)-2-Phenylmethanesulfonyl-1,2,3,4-tetrahydro-isoquinolin-1-yl)thiazol-2-ylamine] |  |  |  | > 25 | ≥ 25.1 | 
O=S(=O)(Cc1cccc(F)c1)N1CCc2ccccc2[C@@H]1c1c[nH]c2ccccc12 [IBR105] | 14.2 | 4.85 | slightly lower |  |  | 
O=S(=O)(Cc1ccc(F)cc1)N1CCc2ccccc2[C@@H]1c1c[nH]c2ccccc12 [IBR107] | 11.2 | 4.95 | slightly lower |  |  | 
O=S(=O)(Cc1ccccc1)N1CCc2ccccc2[C@@H]1c1n[nH]c2ccccc12 [IBR117, (R)-1-(1H-Indazol-3-yl)-2-phenylmethanesulfonyl-1,2,3,4-tetrahydro-isoquinoline] |  |  | significantly lower | 9.5 | 9.55 | 
COc1cc2c(C3c4ccccc4C=CN3S(=O)(=O)Cc3ccccc3)c[nH]c2cn1 (centres unmarked) [IBR122] | 12.7 | 4.90 | slightly lower |  |  | 
O=S(=O)(Cc1cccc(C(F)(F)F)c1)N1CCc2ccccc2[C@H]1c1c[nH]c2ccccc12 [IBR112] | 22.2 | 4.65 |  |  |  | 
O=S(=O)(Cc1ccccc1)N1C=Cc2ccccc2C1c1c[nH]c2ncccc12 (centres unmarked) [IBR124] | 6.2 | 5.21 | significantly lower |  |  | 
O=S(=O)(Cc1ccccc1F)N1CCc2ccccc2[C@@H]1c1c[nH]c2ccccc12 [IBR103] | 12.7 | 4.90 | slightly lower |  |  | 
O=S(=O)(Cc1ccccc1)N1Cc2ccccc2[C@H]1c1c[nH]c2ccccc12 [IBR121, (S)-3-(2-(benzylsulfonyl)isoindolin-1-yl)-1H-indole] |  |  |  | > 12 | ≥ 12 | 
O=S(=O)(Cc1ccccc1)N1CC=Cc2ccccc2[C@@H]1c1c[nH]c2ccccc12 [IBR115] | 14.7 | 4.83 | slightly lower |  |  | minimal change of activity
O=S(=O)(Cc1ccccc1C(F)(F)F)N1CCc2ccccc2[C@@H]1c1c[nH]c2ccccc12 [IBR109] | 14.8 | 4.83 | slightly lower |  |  | 
O=S(=O)(Cc1ccc(F)cc1)N1CCc2ccccc2[C@H]1c1c[nH]c2ccccc12 [IBR108] | 25.7 | 4.59 |  |  |  | 
COc1nccc2c(C3c4ccccc4C=CN3S(=O)(=O)Cc3ccccc3)c[nH]c12 (racemic) [IBR123] | 6.3 | 5.20 | significantly lower |  |  | 
O=S(=O)(Cc1ccccc1)N1CCc2ccccc2[C@H]1c1n[nH]c2ccccc12 [IBR118, (S)-1-(1H-Indazol-3-yl)-2-phenylmethanesulfonyl-1,2,3,4-tetrahydro-isoquinoline] |  |  | slightly lower | 14.3 | 14.5 | 
O=S(=O)(Cc1ccccc1)N1CC=Cc2ccccc2[C@H]1c1c[nH]c2ccccc12 [IBR116] | > 50 | ≤ 4.30 |  |  |  | almost complete loss of function
O=S(=O)(Cc1ccc(C(F)(F)F)cc1)N1CCc2ccccc2[C@H]1c1c[nH]c2ccccc12 [IBR114] | 20.7 | 4.68 |  |  |  | 
O=S(=O)(Cc1ccc(C(F)(F)F)cc1)N1CCc2ccccc2[C@@H]1c1c[nH]c2ccccc12 [IBR113] | 13.6 | 4.87 | slightly lower |  |  | 
O=S(=O)(Cc1ccccc1C(F)(F)F)N1CCc2ccccc2[C@H]1c1c[nH]c2ccccc12 [IBR110] | 16.7 | 4.78 |  |  |  | 
O=S(=O)(Cc1ccccc1)N1CCc2ccccc2[C@H]1c1c[nH]c2ccccc12 [IBR102] | 13.2 | 4.88 | slightly lower |  |  | 
